Results taken from patent publication US12371454B2, “Cyclic peptide compound having Kras inhibitory action” (priority 2019, dated 2025).
Starred links: 1 amine or outer side, 2 acyl side, 3 side chain; linkers in the order of their positions; H or OH if unused. Positions of bridges follow the written chain, without caps; N, C: chain ends. Non-standard residues stand in square brackets, D forms with d. Residues, ends and D or L forms follow the SMILES beside them. *: point of attachment. hPhe(3-Cl-4-CF3) = N[C@@H](CCc1ccc(C(F)(F)F)c(Cl)c1)C(=O)O; hPhe(3-F,4-CF3) = N[C@@H](CCc1ccc(C(F)(F)F)c(F)c1)C(=O)O; X38 = CN([C@@H](Cc1cccc(OC(F)(F)F)c1)C(=O)[*:2])[*:1]; 3Oxa8azabicyclo(3.2.1)octane = C1CC2COCC1N2*; NMePhe(4-Me) = CN[C@@H](Cc1ccc(C)cc1)C(=O)O; NMePhe(3-F) = CN[C@@H](Cc1cccc(F)c1)C(=O)O; NMedβ3hAla = C[C@H](CC(=O)[*:2])N(C)[*:1]; NMeGly(cPent) = CN[C@H](C(=O)O)C1CCCC1; dβ3hPip = O=C(C[C@H]1CCCCN1[*:1])[*:2]; NMeCha = CN[C@@H](CC1CCCCC1)C(=O)O; NMehLeu = CN[C@@H](CCC(C)C)C(=O)O; NMeChg = CN[C@H](C(=O)O)C1CCCCC1; Gly(cBu) = N[C@H](C(=O)O)C1CCC1; NMeD = CN[C@@H](CC(=O)O)C(=O)O; NMeL = CN[C@@H](CC(C)C)C(=O)O; Oxazolidin(3-yl) = C1CN(*)CO1; NMeNva = CCC[C@H](NC)C(=O)O; NMeV = CN[C@H](C(=O)O)C(C)C; d(β3hA) = C[C@@H](N)CC(=O)O; Iva = CC[C@](C)(N)C(=O)O; NMeA = CN[C@@H](C)C(=O)O; Piperidide = C1CCN(*)CC1; Pyrrolidide = C1CCN(*)C1; Ac5c = NC1(C(=O)O)CCCC1; Aze = O=C(O)[C@@H]1CCN1; Sar = CNCC(=O)O

Experiments:
[1] = tested on: Human pancreatic cancer cell line AsPC-1; experiment: Measurement of AsPC-1 cell growth inhibition (AsPC-1 CGI); assay type: cell-based; conditions: 96 h
In short: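 AsPC-1 cells in 15% FBS RPMI-1640 were exposed to test compound for 96 hours at 37° C, with CellTiter-Glo as endpoint.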

[2] = target: T1, Kras and SOS1 (biotin-tagged human Kras loaded with GDP, His-tagged human SOS1) (Homo sapiens, UniProt P01116, G12D); experiment: Protein-protein interaction inhibition between Kras and SOS1 (KrasGl2D-SOS PPI) using AlphaScreen; assay type: binding; conditions: AlphaScreen; biotin-tagged human Kras loaded with GDP, His-tagged human SOS1; read-out: KRAS G12D-SOS PPI IC50
T1 construct: made in house; host or cells: E. coli (stated for Kras only)
In short: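 AlphaScreen format: Ni donor beads capture His-SOS1, streptavidin acceptor beads capture biotinylated Kras (E. coli-expressed, GDP-loaded post-purification). Excite 680 nm, read 520-620 nm.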

T1 sequence (P01116 1-188 isoform P01116-2 G12D): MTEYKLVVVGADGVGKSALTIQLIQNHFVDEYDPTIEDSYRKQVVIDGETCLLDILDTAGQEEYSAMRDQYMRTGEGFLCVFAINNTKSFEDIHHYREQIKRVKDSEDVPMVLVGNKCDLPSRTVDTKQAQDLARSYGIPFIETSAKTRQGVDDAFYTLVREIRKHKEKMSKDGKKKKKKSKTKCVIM

| Structure (SMILES) | IC50 [1] [nM] | IC50 [2] [nM] |
| --- | --- | --- |
| CC[C@H](C)[C@@H]1NC(=O)[C@H](CC(C)C)N(C)C(=O)C[C@@H](C(=O)N2CCCCC2)N(C)C(=O)[C@H](C(C)C)N(C)C(=O)C2(CCCC2)NC(=O)[C@@H]2CCCN2C(=O)[C@H](CCc2ccc(C(F)(F)F)c(Cl)c2)NC(=O)CN(C)C(=O)[C@H](Cc2cccc(F)c2)N(C)C(=O)CN(C)C(=O)CN(C)C1=O [Compound 1557] ([NMeL]I[Sar][Sar][NMePhe(3-F)][Sar][hPhe(3-Cl-4-CF3)]P[Ac5c][NMeV][NMeD]-Piperidide; lactam N-11) | 100 to 500 | 5.7 |
| CC[C@H](C)[C@@H]1NC(=O)[C@H](CC(C)C)N(C)C(=O)C[C@@H](C(=O)N(C)C)N(C)C(=O)[C@H](C2CCCC2)N(C)C(=O)C2(CCCC2)NC(=O)[C@H](C)NC(=O)[C@H](CCc2ccc(C(F)(F)F)c(Cl)c2)NC(=O)CN(C)C(=O)[C@H](CC2CCCCC2)N(C)C(=O)[C@@H]2CCN2C(=O)[C@H](C)N(C)C1=O [Compound 575] ([NMeL]I[NMeA][Aze][NMeCha][Sar][hPhe(3-Cl-4-CF3)]A[Ac5c][NMeGly(cPent)][NMeD]-NMe2; lactam N-11) | 100 to 500 | 0.56 |
| CCC[C@H]1C(=O)N[C@@H]([C@@H](C)CC)C(=O)N(C)CC(=O)N(C)CC(=O)N(C)[C@@H](Cc2ccc(C)cc2)C(=O)N(C)CC(=O)N[C@@H](CCc2ccc(C(F)(F)F)c(Cl)c2)C(=O)N2CCC[C@H]2C(=O)NC2(CCCC2)C(=O)N(C)[C@@H](C2CCCCC2)C(=O)N(C)[C@H](C(=O)N2C3CCC2COC3)CC(=O)N1C [Compound 1994] ([NMeNva]I[Sar][Sar][NMePhe(4-Me)][Sar][hPhe(3-Cl-4-CF3)]P[Ac5c][NMeChg][NMeD]-{3Oxa8azabicyclo(3.2.1)octane}; lactam N-11) | 50 to 100 | 0.58 |
| CC[C@H](C)[C@@H]1NC(=O)[C@H](CC(C)C)N(C)C(=O)C[C@@H](C)NC(=O)[C@H](C2CCCC2)N(C)C(=O)C2(CCCC2)NC(=O)[C@@H]2CCCN2C(=O)[C@H](CCc2ccc(C(F)(F)F)c(Cl)c2)NC(=O)CN(C)C(=O)[C@H](Cc2ccc(C)cc2)N(C)C(=O)[C@@H]2CCN2C(=O)CN(C)C1=O [Compound 1500] (cyclo([Ac5c][NMeGly(cPent)][d(β3hA)][NMeL]I[Sar][Aze][NMePhe(4-Me)][Sar][hPhe(3-Cl-4-CF3)]P)) | 100 to 500 | 3.9 |
| CC[C@H](C)[C@@H]1NC(=O)[C@H](CC(C)C)N(C)C(=O)C[C@H]2CCCCN2C(=O)[C@H](C(C)C)N(C)C(=O)C2(CCCC2)NC(=O)[C@@H]2CCCN2C(=O)[C@H](CCc2ccc(C(F)(F)F)c(Cl)c2)NC(=O)CN(C)C(=O)[C@H](CC2CCCCC2)N(C)C(=O)CN(C)C(=O)CN(C)C1=O [Compound 747] (cyclo([Ac5c][NMeV][dβ3hPip][NMeL]I[Sar][Sar][NMeCha][Sar][hPhe(3-Cl-4-CF3)]P)) | 100 to 500 | 11 |
| CC[C@H](C)[C@@H]1NC(=O)[C@H](CC(C)C)N(C)C(=O)C[C@@H](C(=O)N2CCCCC2)N(C)C(=O)[C@H](CCC(C)C)N(C)C(=O)C2(CCCC2)NC(=O)[C@@H]2CCCN2C(=O)[C@H](CCc2ccc(C(F)(F)F)c(Cl)c2)NC(=O)CN(C)C(=O)[C@H](CC2CCCCC2)N(C)C(=O)CN(C)C(=O)CN(C)C1=O [Compound 762] ([NMeL]I[Sar][Sar][NMeCha][Sar][hPhe(3-Cl-4-CF3)]P[Ac5c][NMehLeu][NMeD]-Piperidide; lactam N-11) | 100 to 500 | 5.5 |
| CC[C@H](C)[C@@H]1NC(=O)[C@H](CC(C)C)N(C)C(=O)C[C@@H](C(=O)N2CCCCC2)N(C)C(=O)[C@H](C(C)C)N(C)C(=O)C2(CCCC2)NC(=O)[C@@H]2CCCN2C(=O)[C@H](CCc2ccc(C(F)(F)F)c(Cl)c2)NC(=O)CN(C)C(=O)[C@H](Cc2cccc(OC(F)(F)F)c2)N(C)C(=O)CN(C)C(=O)CN(C)C1=O [Compound 1640] ([NMeL]I[Sar][Sar][X38][Sar][hPhe(3-Cl-4-CF3)]P[Ac5c][NMeV][NMeD]-Piperidide; lactam N-11) | 100 to 500 | 6.6 |
| CC[C@H](C)[C@@H]1NC(=O)[C@H](CC(C)C)N(C)C(=O)C[C@@H](C(=O)N2CCCC2)N(C)C(=O)[C@H](C(C)C)N(C)C(=O)C2(CCCC2)NC(=O)[C@@H]2CCCN2C(=O)[C@H](CCc2ccc(C(F)(F)F)c(Cl)c2)NC(=O)CN(C)C(=O)[C@H](Cc2ccc(C)cc2)N(C)C(=O)CN(C)C(=O)CN(C)C1=O [Compound 1749] ([NMeL]I[Sar][Sar][NMePhe(4-Me)][Sar][hPhe(3-Cl-4-CF3)]P[Ac5c][NMeV][NMeD]-Pyrrolidide; lactam N-11) | 100 to 500 | 0.74 |
| CC[C@H](C)[C@@H]1NC(=O)[C@H](CC(C)C)N(C)C(=O)C[C@@H](C(=O)N2CCOC2)N(C)C(=O)[C@H](C(C)C)N(C)C(=O)C2(CCCC2)NC(=O)[C@@H]2CCCN2C(=O)[C@H](CCc2ccc(C(F)(F)F)c(Cl)c2)NC(=O)CN(C)C(=O)[C@H](CC2CCCCC2)N(C)C(=O)[C@@H]2CCN2C(=O)[C@H](C)N(C)C1=O [Compound 1329] ([NMeL]I[NMeA][Aze][NMeCha][Sar][hPhe(3-Cl-4-CF3)]P[Ac5c][NMeV][NMeD]-{Oxazolidin(3-yl)}; lactam N-11) | 100 to 500 | 1.7 |
| CC[C@H](C)[C@@H]1NC(=O)[C@H](CC(C)C)N(C)C(=O)C[C@@H](C(=O)N2CCCC2)N(C)C(=O)[C@H](C2CCCCC2)N(C)C(=O)C2(CCCC2)NC(=O)[C@@H]2CCCN2C(=O)[C@H](CCc2ccc(C(F)(F)F)c(F)c2)NC(=O)CN(C)C(=O)[C@H](CC2CCCCC2)N(C)C(=O)CN(C)C(=O)CN(C)C1=O [Compound 1870] ([NMeL]I[Sar][Sar][NMeCha][Sar][hPhe(3-F,4-CF3)]P[Ac5c][NMeChg][NMeD]-Pyrrolidide; lactam N-11) | 20 to 50 | 0.74 |
| CC[C@H](C)[C@@H]1NC(=O)[C@H](CC(C)C)N(C)C(=O)C[C@@H](C(=O)N2CCCCC2)N(C)C(=O)[C@H](C(C)C)N(C)C(=O)[C@](C)(CC)NC(=O)[C@@H]2CCCN2C(=O)[C@H](CCc2ccc(C(F)(F)F)c(Cl)c2)NC(=O)CN(C)C(=O)[C@H](CC2CCCCC2)N(C)C(=O)CN(C)C(=O)CN(C)C1=O [Compound 620] ([NMeL]I[Sar][Sar][NMeCha][Sar][hPhe(3-Cl-4-CF3)]P[Iva][NMeV][NMeD]-Piperidide; lactam N-11) | 100 to 500 | 11 |
| CC[C@H](C)[C@@H]1NC(=O)[C@H](C)N(C)C(=O)C[C@@H](C)N(C)C(=O)[C@H](C(C)C)N(C)C(=O)C2(CCCC2)NC(=O)[C@@H]2CCCN2C(=O)[C@H](CCc2ccc(C(F)(F)F)c(Cl)c2)NC(=O)CN(C)C(=O)[C@H](CC2CCCCC2)N(C)C(=O)CN(C)C(=O)CN(C)C1=O [Compound 714] (cyclo([Ac5c][NMeV][NMedβ3hAla][NMeA]I[Sar][Sar][NMeCha][Sar][hPhe(3-Cl-4-CF3)]P)) | 100 to 500 | 2.3 |
| CC(C)C[C@H]1C(=O)N[C@@H](C2CCC2)C(=O)N(C)CC(=O)N(C)CC(=O)N(C)[C@@H](CC2CCCCC2)C(=O)N(C)CC(=O)N[C@@H](CCc2ccc(C(F)(F)F)c(Cl)c2)C(=O)N2CCC[C@H]2C(=O)NC2(CCCC2)C(=O)N(C)[C@@H](C2CCCCC2)C(=O)N(C)[C@H](C(=O)N2CCCCC2)CC(=O)N1C [Compound 411] ([NMeL][Gly(cBu)][Sar][Sar][NMeCha][Sar][hPhe(3-Cl-4-CF3)]P[Ac5c][NMeChg][NMeD]-Piperidide; lactam N-11) | 50 to 100 | 0.62 |
